Laboratory results reported in US12065430B2, “Indazole compound or salt thereof” (TAIHO PHARMACEUTICAL CO., LTD., priority 2018, dated 2024).

These molecules were tested against G12C K-Ras4B (1-169) (Homo sapiens (Human), UniProt P01116, G12C) (assay: Test of compounds on whether to bind to KRASG12C (LC-MS compound binding rate)). Conditions: final compound concentration of 2 μM, 1 μM protein, 25° C. for 2 hours.
In short: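 K-Ras4B (1-169) WT and G12C (1 μM each, mixed) in 1×TBS, 0.1 mM TCEP incubated with compound (final 2 μM) 2 h at 25° C; quenched with 0.2% formic acid. Intact-protein LC-MS (ESI+, deconvoluted); binding rate = adduct signal/(adduct + unbound signal), giving selectivity over WT.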

| Compound | binding rate for G12C K-Ras4B (1-169) |
| --- | --- |
| C=CC(=O)N1C[C@H](NC(=O)c2c(C)nc(CNc3n[nH]c4cc(Cl)c(C(C)(C)C)cc34)n2C)C2(CC2)C1 [Example 54, (R)—N-(5-acryloyl-5-azaspiro[2.4]heptan-7-yl)-2-(((5-(tert-butyl)-6-chloro-1H-indazol-3-yl)amino)methyl)-1,4-dimethyl-1H-imidazole-5-carboxamide] | B (a binding rate of 60% or more and less than 80% is rated “B,”) |
| Cc1nc(CNc2n[nH]c3cc(Cl)c(C(C)(C)C)cc23)n(C)c1C(=O)NC1CN(C(=O)/C=C/CN(C)C)C1 [Example 80, (E)-2-(((5-(tert-butyl)-6-chloro-1H-indazol-3-yl)amino)methyl)-N-(1-(4-(dimethylamino)but-2-enoyl)azetidin-3-yl)-1,4-dimethyl-1H-imidazole-5-carboxamide] | C (a binding rate of 40% or more and less than 60% is rated “C,”) |
| Cc1nc(CNc2n[nH]c3cc(Cl)c(C(C)(C)C)cc23)n(C(C)C)c1C(=O)NC1CN(C(=O)/C=C/CN2CCCCC2)C1 [Example 79, (E)-2-(((5-(tert-butyl)-6-chloro-1H-indazol-3-yl)amino)methyl)-1-isopropyl-4-methyl-N-(1-(4-(piperidin-1-yl)but-2-enoyl)azetidin-3-yl)-1H-imidazole-5-carboxamide] | E (a binding rate of less than 20% is rated “E.”) |
| C=CC(=O)N1CC(NC(=O)c2c(Cl)nc(CNc3n[nH]c4cc(Cl)c(C(C)(C)C)cc34)n2[C@@H]2CCN(C3COC3)C2)C1 [Example 121, (R)—N-(1-acryloylazetidin-3-yl)-2-(((5-(tert-butyl)-6-chloro-1H-indazol-3-yl)amino)methyl)-4-chloro-1-(1-(oxetan-3-yl)pyrrolidin-3-yl)-1H-imidazole-5-carboxamide] | A (a binding rate of 80% or more is rated “A,”) |
| C=CC(=O)N1CC(NC(=O)c2c(Cl)nc(CNc3n[nH]c4cc(Cl)c(C(C)(C)C)cc34)n2C2CCCN(C)C2)C1 (stereo not shown) [Example 118, N-(1-acryloylazetidin-3-yl)-2-(((5-(tert-butyl)-6-chloro-1H-indazol-3-yl)amino)methyl)-4-chloro-1-(1-methylpiperidin-3-yl)-1H-imidazole-5-carboxamide] | A (a binding rate of 80% or more is rated “A,”) |
| C=CC(=O)N1CC(NC(=O)c2c(C)nc(CNc3n[nH]c4cc(Cl)c(C(C)(C)C)cc34)n2Cc2ccccc2)C1 [Example 15, N-(1-acryloylazetidin-3-yl)-1-benzyl-2-(((5-(tert-butyl)-6-chloro-1H-indazol-3-yl)amino)methyl)-4-methyl-1H-imidazole-5-carboxamide] | A (a binding rate of 80% or more is rated “A,”) |
| C=CC(=O)N1CC(NC(=O)c2c(C)nc(CNc3n[nH]c4cc(Cl)c(C(C)(C)C)cc34)n2CC)C1 [Example 12, N-(1-acryloylazetidin-3-yl)-2-(((5-(tert-butyl)-6-chloro-1H-indazol-3-yl)amino)methyl)-1-ethyl-4-methyl-1H-imidazole-5-carboxamide] | B (a binding rate of 60% or more and less than 80% is rated “B,”) |
| C=CC(=O)N1CC(NC(=O)c2c(Cl)c(CNc3n[nH]c4cc(Cl)c(C(C)(C)C)cc34)nn2C)C1 [Example 6, N-(1-acryloylazetidin-3-yl)-3-(((5-(tert-butyl)-6-chloro-1H-indazol-3-yl)amino)methyl)-4-chloro-1-methyl-1H-pyrazole-5-carboxamide] | B (a binding rate of 60% or more and less than 80% is rated “B,”) |
| C=CC(=O)N1CC(NC(=O)c2c(Cl)nc(CNc3n[nH]c4cc(Cl)c(C(C)(C)C)cc34)n2[C@@H]2CCN(CC(F)F)[C@H]2C)C1 [Example 125, N-(1-acryloylazetidin-3-yl)-2-(((5-(tert-butyl)-6-chloro-1H-indazol-3-yl)amino)methyl)-4-chloro-1-((2S,3R)-1-(2,2-difluoroethyl)-2-methylpyrrolidin-3-yl)-1H-imidazole-5-carboxamide] | A (a binding rate of 80% or more is rated “A,”) |
| C=CC(=O)N(C)C1CN(C(=O)c2c(C)nc(CNc3n[nH]c4cc(Cl)c(C(C)(C)C)cc34)n2C)C1 [Example 51, N-(1-(2-(((5-(tert-butyl)-6-chloro-1H-indazol-3-yl)amino)methyl)-1,4-dimethyl-1H-imidazole-5-carbonyl)azetidin-3-yl)-N-methylacrylamide] | B (a binding rate of 60% or more and less than 80% is rated “B,”) |
| C=CC(=O)N1CC(NC(=O)c2c(F)nc(CNc3n[nH]c4cc(Cl)c(C(C)(C)C)cc34)n2C(C)C)C1 [Example 34, N-(1-acryloylazetidin-3-yl)-2-(((5-(tert-butyl)-6-chloro-1H-indazol-3-yl)amino)methyl)-4-fluoro-1-isopropyl-1H-imidazole-5-carboxamide] | A (a binding rate of 80% or more is rated “A,”) |
| C=CC(=O)N1CC(NC(=O)c2c(Cl)nc(CNc3n[nH]c4cc(Cl)c(C(C)(C)C)cc34)n2[C@@H]2CCN(Cc3ccccc3)C2)C1 [Example 122, (R)—N-(1-acryloylazetidin-3-yl)-1-(1-benzylpyrrolidin-3-yl)-2-(((5-(tert-butyl)-6-chloro-1H-indazol-3-yl)amino)methyl)-4-chloro-1H-imidazole-5-carboxamide] | A (a binding rate of 80% or more is rated “A,”) |
| C=CC(=O)N1CC(N(C)C(=O)c2c(C)nc(CNc3n[nH]c4cc(Cl)c(C(C)(C)C)cc34)n2C)C1 [Example 49, N-(1-acryloylazetidin-3-yl)-2-(((5-(tert-butyl)-6-chloro-1H-indazol-3-yl)amino)methyl)-N,1,4-trimethyl-1H-imidazole-5-carboxamide] | C (a binding rate of 40% or more and less than 60% is rated “C,”) |
| C=CC(=O)N1CC(NC(=O)c2c(C(F)F)nc(CNc3n[nH]c4cc(Cl)c(C(C)(C)C)cc34)n2C2CCN(C)C2)C1 (stereo not shown) [Example 91, N-(1-acryloylazetidin-3-yl)-2-(((5-(tert-butyl)-6-chloro-1H-indazol-3-yl)amino)methyl)-4-(difluoromethyl)-1-(1-methylpyrrolidin-3-yl)-1H-imidazole-5-carboxamide] | A (a binding rate of 80% or more is rated “A,”) |
| C=CC(=O)N1C[C@@H](C)[C@@H](NC(=O)c2c(F)nc(CNc3n[nH]c4cc(Cl)c(C(C)(C)C)cc34)n2C)C1 [Example 74, N-((3R,4R)-1-acryloyl-4-methylpyrrolidin-3-yl)-2-(((5-(tert-butyl)-6-chloro-1H-indazol-3-yl)amino)methyl)-4-fluoro-1-methyl-1H-imidazole-5-carboxamide] | A (a binding rate of 80% or more is rated “A,”) |
| C=CC(=O)N1CC(NC(=O)c2cnc(C(C)Nc3n[nH]c4cc(Cl)c(C(C)(C)C)cc34)n2C)C1 (stereo not shown) [Example 4, N-(1-acryloylazetidin-3-yl)-2-(1-((5-(tert-butyl)-6-chloro-1H-indazol-3-yl)amino)ethyl)-1-methyl-1H-imidazole-5-carboxamide] | C (a binding rate of 40% or more and less than 60% is rated “C,”) |
| C=CC(=O)N1CC(NC(=O)c2c(C)nc(CNc3n[nH]c4cc(Cl)c(C(C)(C)C)cc34)n2C2CCCC2)C1 [Example 17, N-(1-acryloylazetidin-3-yl)-2-(((5-(tert-butyl)-6-chloro-1H-indazol-3-yl)amino)methyl)-1-cyclopentyl-4-methyl-1H-imidazole-5-carboxamide] | B (a binding rate of 60% or more and less than 80% is rated “B,”) |
| C=CS(=O)(=O)N1CC(NC(=O)c2c(C)nc(CNc3n[nH]c4cc(Cl)c(C(C)(C)C)cc34)n2C(C)C)C1 [Example 86, 2-(((5-(tert-butyl)-6-chloro-1H-indazol-3-yl)amino)methyl)-1-isopropyl-4-methyl-N-(1-(vinylsulfonyl)azetidin-3-yl)-1H-imidazole-5-carboxamide] | A (a binding rate of 80% or more is rated “A,”) |
| C=CC(=O)N1C[C@H](NC(=O)c2c(C)nc(CNc3n[nH]c4cc(Cl)c(C(C)(C)C)cc34)n2C)[C@@H](C)C1 [Example 60, N-((3R,4S)-1-acryloyl-4-methylpyrrolidin-3-yl)-2-(((5-(tert-butyl)-6-chloro-1H-indazol-3-yl)amino)methyl)-1,4-dimethyl-1H-imidazole-5-carboxamide] | C (a binding rate of 40% or more and less than 60% is rated “C,”) |
| C=CC(=O)N1CC(NC(=O)c2c(Cl)nc(CNc3n[nH]c4cc(Cl)c(C(C)(C)C)cc34)n2[C@@H]2CCN(CC(F)F)C2)C1 [Example 113, (R)—N-(1-acryloylazetidin-3-yl)-2-(((5-(tert-butyl)-6-chloro-1H-indazol-3-yl)amino)methyl)-4-chloro-1-(1-(2,2-difluoroethyl)pyrrolidin-3-yl)-1H-imidazole-5-carboxamide] | A (a binding rate of 80% or more is rated “A,”) |
| C=CC(=O)N1CC(NC(=O)c2c(Cl)nc(CNc3n[nH]c4cc(Cl)c(C(=C)C(F)(F)F)cc34)n2C(C)C)C1 [Example 43, N-(1-acryloylazetidin-3-yl)-4-chloro-2-(((6-chloro-5-(3,3,3-trifluoroprop-1-en-2-yl)-1H-indazol-3-yl)amino)methyl)-1-isopropyl-1H-imidazole-5-carboxamide] | C (a binding rate of 40% or more and less than 60% is rated “C,”) |
| C=CC(=O)N1CC(NC(=O)c2cnc(CNc3n[nH]c4cc(Cl)c(C=C)cc34)n2C)C1 [Example 38, N-(1-acryloylazetidin-3-yl)-2-(((6-chloro-5-vinyl 1H-indazol-3-yl)amino)methyl)-1-methyl-1H-imidazole-5-carboxamide] | C (a binding rate of 40% or more and less than 60% is rated “C,”) |
